Test results as given in US10487093B2, “Heterocyclic compounds, in particular 2-oxo-4,4,5,5,6,6,7,7-octahydrobenzoxazole derivatives, and their use as antibacterial compounds” (priority 2016, dated 2019).
Values after ≈ are worked out from the molar mass of the structure shown.

What was measured:
[1] = tested on: Enterococcus faecalis ATCC 29212; assay: MIC, broth microdilution (CLSI) versus planktonic bacteria; assay type: cell-based; conditions: ATCC29212, 16-20 h, mode of three independent experiments, read-out: MIC, Ef ATCC 29212
[2] = tested on: Acinetobacter baumannii NCTC 13420; assay: as above; assay type: cell-based; conditions: NCTC13420; Acinetobacter baumannii NCTC 13420; 16-20 h; mode of three independent experiments; read-out: MIC, Ab NCTC 13420
[3] = tested on: human hepatic cell line (HepG2 ATCC HB-8065); assay: Human cell viability assay (CellTiter-Glo); conditions: Homo sapiens, HepG2, 24 h, read-out: IC50 (μg/mL) HepG2
[4] = tested on: Escherichia coli ATCC 25922; assay: MIC, broth microdilution (CLSI) versus planktonic bacteria; assay type: cell-based; conditions: ATCC25922; Escherichia coli ATCC 25922; 16-20 h; mode of three independent experiments; read-out: MIC, Ec ATCC 25922
[5] = tested on: Acinetobacter baumannii ATCC 19606; assay: as above; assay type: cell-based; conditions: ATCC19606; Acinetobacter baumannii ATCC 19606; 16-20 h; mode of three independent experiments; read-out: MIC, Ab ATCC 19606
[6] = tested on: Haemophilus influenzae ATCC 49247; assay: as above; assay type: cell-based; conditions: ATCC49247; Haemophilus influenzae ATCC 49247; 16-20 h; mode of three independent experiments; read-out: MIC, Hi ATCC 49247
[7] = tested on: Enterobacter cloacae NCTC 13406; assay: as above; assay type: cell-based; conditions: NCTC13406; Enterobacter cloacae NCTC 13406; 16-20 h; mode of three independent experiments; read-out: MIC, Ecl NCTC 13406
[8] = tested on: Staphylococcus aureus ATCC 29213; assay: as above; assay type: cell-based; conditions: ATCC29213; Staphylococcus aureus ATCC 29213; 16-20 h; mode of three independent experiments; read-out: MIC, Sa ATCC 29213
[9] = tested on: Pseudomonas aeruginosa ATCC 27853; assay: as above; assay type: cell-based; conditions: ATCC27853; Pseudomonas aeruginosa ATCC 27853; 16-20 h; mode of three independent experiments; read-out: MIC, Pa ATCC 27853
[10] = tested on: E. coli NCTC 13476; assay: as above; assay type: cell-based; conditions: NCTC13476; Escherichia coli NCTC 13476; 16-20 h; mode of three independent experiments; read-out: MIC, Ec NCTC 13476
[11] = tested on: E. coli MG1655 D87G; assay type: cell-based, Escherichia coli; conditions: compared to the isogenic parent strain E. coli MG1655; D87G mutation on DNA gyrase subunit GyrA
[12] = tested on: E. coli ATCC BAA-2452; assay: MIC, broth microdilution (CLSI) versus planktonic bacteria; assay type: cell-based; conditions: Escherichia coli ATCC BAA-2452; 16-20 h; mode of three independent experiments; read-out: MIC, Ec ATCC BAA 2452
[13] = tested on: E. coli MG1655 S83L; assay type: cell-based, Escherichia coli; conditions: compared to the isogenic parent strain E. coli MG1655; S83L mutation on DNA gyrase subunit GyrA
[14] = tested on: Streptococcus pneumoniae ATCC 49619; assay: MIC, broth microdilution (CLSI) versus planktonic bacteria; assay type: cell-based; conditions: ATCC49619; Streptococcus pneumoniae ATCC 49619; 16-20 h; mode of three independent experiments; read-out: MIC, Sp ATCC 49619
[15] = tested on: E. coli MG1655; assay: as above; assay type: cell-based, Escherichia coli; conditions: Escherichia coli, MG1655, read-out: MIC, Ec MG1655 WT

NCCCOc1ccc2ccc(=O)n(CCN[C@@H]3CC[C@@H]4[C@@H](C3)OC(=O)N4c3ccc4c(n3)NC(=O)CO4)c2c1 [Compound 3, 1-(2-{[(3aR,6R,7aR)-2-oxo-3-{3-oxo-2H,3H,4H-pyrido[3,2-b][1,4]oxazin-6-yl}-octahydro-1,3-benzoxazol-6-yl]amino}ethyl)-7-(3-aminopropoxy)-1,2-dihydroquinolin-2-one]
MIC [1]: < 1 µg/mL
MIC [2]: 10 to 100 µg/mL (≈ 18.2 to 182 µM)
IC50 [3]: > 100 µg/mL
MIC [4]: 1 to 10 µg/mL (≈ 1.82 to 18.2 µM)
MIC [5]: > 100 µg/mL
MIC [6]: 10 to 100 µg/mL (≈ 18.2 to 182 µM)
MIC [7]: 10 to 100 µg/mL (≈ 18.2 to 182 µM)
MIC [8]: < 1 µg/mL
MIC [9]: 1 to 10 µg/mL (≈ 1.82 to 18.2 µM)

COc1cnc2ccc(=O)n(CCN[C@H]3CC[C@H]4[C@H](C3)OC(=O)N4c3ccc4c(n3)NC(=O)CO4)c2n1 [Compound 63, (3aS,6S,7aS)-6-[(2-{3-methoxy-6-oxo-5H,6H-pyrido[2,3-b]pyrazin-5-yl}ethyl)amino]-3-{3-oxo-2H,3H,4H-pyrido[3,2-b][1,4]oxazin-6-yl}-octahydro-1,3-benzoxazol-2-one]
MIC [10]: < 1 µg/mL
MIC [1]: < 1 µg/mL
MIC [2]: < 1 µg/mL
Fold increase in MIC, E. coli MG1655 D87G [11]: 1 fold
MIC [12]: < 1 µg/mL
IC50 [3]: > 100 µg/mL
MIC [4]: < 1 µg/mL
MIC [5]: < 1 µg/mL
MIC [6]: < 1 µg/mL
MIC [7]: < 1 µg/mL
Fold increase in MIC, E. coli MG1655 S83L [13]: 1 fold
MIC [14]: < 1 µg/mL
MIC [15]: < 1 µg/mL
MIC [8]: < 1 µg/mL
MIC [9]: < 1 µg/mL

N#Cc1ccc2ncc(=O)n(CCN[C@@H]3CC[C@@H]4[C@@H](C3)OC(=O)N4c3ccc4c(n3)NC(=O)CO4)c2c1 [Compound 68, 4-(2-{[(3aR,6R,7aR)-2-oxo-3-{3-oxo-2H,3H,4H-pyrido[3,2-b][1,4]oxazin-6-yl}-octahydro-1,3-benzoxazol-6-yl]amino}ethyl)-3-oxo-3,4-dihydroquinoxaline-6-carbonitrile]
MIC [10]: < 1 µg/mL
MIC [2]: < 1 µg/mL
Fold increase in MIC, E. coli MG1655 D87G [11]: 1 fold
MIC [12]: < 1 µg/mL
IC50 [3]: 10 to 100 µg/mL (≈ 19.9 to 199 µM)
MIC [4]: < 1 µg/mL
MIC [5]: < 1 µg/mL
MIC [6]: < 1 µg/mL
MIC [7]: < 1 µg/mL
Fold increase in MIC, E. coli MG1655 S83L [13]: 1 fold
MIC [14]: < 1 µg/mL
MIC [15]: < 1 µg/mL
MIC [8]: < 1 µg/mL
MIC [9]: 1 to 10 µg/mL (≈ 1.99 to 19.9 µM)

COc1ccc2ncc(=O)n(CCN[C@H]3CC[C@H]4[C@@H](C3)OC(=O)N4c3ccc4c(n3)NC(=O)CO4)c2c1 [Compound 24, 1-(2-{[(3aS,6S,7aR)-2-oxo-3-{3-oxo-2H,3H,4H-pyrido[3,2-b][1,4]oxazin-6-yl}-octahydro-1,3-benzoxazol-6-yl]amino}ethyl)-7-methoxy-1,2-dihydroquinoxalin-2-one]
MIC [10]: < 1 µg/mL
MIC [2]: < 1 µg/mL
Fold increase in MIC, E. coli MG1655 D87G [11]: 2 fold
MIC [12]: < 1 µg/mL
IC50 [3]: > 100 µg/mL
MIC [4]: < 1 µg/mL
MIC [5]: < 1 µg/mL
MIC [6]: < 1 µg/mL
MIC [7]: < 1 µg/mL
Fold increase in MIC, E. coli MG1655 S83L [13]: 2 fold
MIC [14]: < 1 µg/mL
MIC [15]: < 1 µg/mL
MIC [8]: < 1 µg/mL
MIC [9]: < 1 µg/mL

COc1cnc2ccc(=O)n(CCN[C@@H]3CC[C@@H]4[C@@H](C3)OC(=O)N4c3ccc4c(n3)NC(=O)CO4)c2c1 [Compound 69, 1-(2-{[(3aR,6R,7aR)-2-oxo-3-{3-oxo-2H,3H,4H-pyrido[3,2-b][1,4]oxazin-6-yl}-octahydro-1,3-benzoxazol-6-yl]amino}ethyl)-7-methoxy-1,2-dihydro-1,5-naphthyridin-2-one]
MIC [10]: < 1 µg/mL
MIC [2]: < 1 µg/mL
Fold increase in MIC, E. coli MG1655 D87G [11]: 1 fold
MIC [12]: < 1 µg/mL
IC50 [3]: > 100 µg/mL
MIC [4]: < 1 µg/mL
MIC [5]: < 1 µg/mL
MIC [6]: < 1 µg/mL
MIC [7]: < 1 µg/mL
Fold increase in MIC, E. coli MG1655 S83L [13]: 1 fold
MIC [14]: < 1 µg/mL
MIC [15]: < 1 µg/mL
MIC [8]: < 1 µg/mL
MIC [9]: 1 to 10 µg/mL (≈ 1.97 to 19.7 µM)

N#Cc1ccc2ccc(=O)n(CCCN[C@@H]3CC[C@@H]4[C@@H](C3)OC(=O)N4c3ccc4c(n3)NC(=O)CO4)c2c1 [Compound 74, 1-(3-{[(3aR,6R,7aR)-2-oxo-3-{3-oxo-2H,3H,4H-pyrido[3,2-b][1,4]oxazin-6-yl}-octahydro-1,3-benzoxazol-6-yl]amino}propyl)-2-oxo-1,2-dihydroquinoline-7-carbonitrile]
MIC [10]: < 1 µg/mL
MIC [2]: < 1 µg/mL
Fold increase in MIC, E. coli MG1655 D87G [11]: 1 fold
MIC [12]: < 1 µg/mL
IC50 [3]: 10 to 100 µg/mL (≈ 19.4 to 194 µM)
MIC [4]: < 1 µg/mL
MIC [5]: < 1 µg/mL
MIC [6]: < 1 µg/mL
MIC [7]: < 1 µg/mL
Fold increase in MIC, E. coli MG1655 S83L [13]: 1 fold
MIC [14]: < 1 µg/mL
MIC [15]: < 1 µg/mL
MIC [8]: < 1 µg/mL
MIC [9]: < 1 µg/mL

O=C1COc2ccc(N3C(=O)O[C@H]4C[C@@H](NCCCn5c(=O)cnc6cc(F)c(F)cc65)CC[C@@H]43)nc2N1 [Compound 90, 1-(3-{[(3aS,6S,7aS)-2-oxo-3-{3-oxo-2H,3H,4H-pyrido[3,2-b][1,4]oxazin-6-yl}-octahydro-1,3-benzoxazol-6-yl]amino}propyl)-6,7-difluoro-1,2-dihydroquinoxalin-2-one]
MIC [10]: < 1 µg/mL
MIC [2]: < 1 µg/mL
Fold increase in MIC, E. coli MG1655 D87G [11]: 4 fold
MIC [12]: < 1 µg/mL
IC50 [3]: 10 to 100 µg/mL (≈ 19 to 190 µM)
MIC [4]: < 1 µg/mL
MIC [5]: < 1 µg/mL
MIC [6]: < 1 µg/mL
MIC [7]: < 1 µg/mL
Fold increase in MIC, E. coli MG1655 S83L [13]: 2 fold
MIC [14]: < 1 µg/mL
MIC [15]: < 1 µg/mL
MIC [8]: < 1 µg/mL
MIC [9]: 1 to 10 µg/mL (≈ 1.9 to 19 µM)

COc1ccc2ncc(=O)n(CCN[C@H]3CCC4C(C3)OC(=O)N4c3ccc4c(n3)NC(=O)CO4)c2n1 (stereo in doubt) [Compound 45, (3aS,6S,7aS)-6-[(2-{6-methoxy-3-oxo-3H,4H-pyrido[2,3-b]pyrazin-4-yl}ethyl)amino]-3-{3-oxo-2H,3H,4H-pyrido[3,2-b][1,4]oxazin-6-yl}-octahydro-1,3-benzoxazol-2-one]
MIC [10]: < 1 µg/mL
MIC [2]: < 1 µg/mL
Fold increase in MIC, E. coli MG1655 D87G [11]: 1 fold
MIC [12]: < 1 µg/mL
IC50 [3]: 10 to 100 µg/mL (≈ 19.7 to 197 µM)
MIC [4]: < 1 µg/mL
MIC [5]: < 1 µg/mL
MIC [6]: < 1 µg/mL
MIC [7]: < 1 µg/mL
Fold increase in MIC, E. coli MG1655 S83L [13]: 2 fold
MIC [14]: < 1 µg/mL
MIC [15]: < 1 µg/mL
MIC [8]: < 1 µg/mL
MIC [9]: 1 to 10 µg/mL (≈ 1.97 to 19.7 µM)

N#Cc1ccc2ccc(=O)n(CCCN[C@H]3CC[C@H]4[C@H](C3)OC(=O)N4c3ccc4c(n3)NC(=O)CO4)c2c1 [Compound 60, 1-(3-{[(3aS,6S,7aS)-2-oxo-3-{3-oxo-2H,3H,4H-pyrido[3,2-b][1,4]oxazin-6-yl}-octahydro-1,3-benzoxazol-6-yl]amino}propyl)-2-oxo-1,2-dihydroquinoline-7-carbonitrile]
MIC [10]: < 1 µg/mL
MIC [1]: < 1 µg/mL
MIC [2]: < 1 µg/mL
Fold increase in MIC, E. coli MG1655 D87G [11]: 2 fold
MIC [12]: < 1 µg/mL
IC50 [3]: 10 to 100 µg/mL (≈ 19.4 to 194 µM)
MIC [4]: < 1 µg/mL
MIC [5]: < 1 µg/mL
MIC [6]: < 1 µg/mL
MIC [7]: < 1 µg/mL
Fold increase in MIC, E. coli MG1655 S83L [13]: 4 fold
MIC [14]: < 1 µg/mL
MIC [15]: < 1 µg/mL
MIC [8]: < 1 µg/mL
MIC [9]: < 1 µg/mL

COc1cnc2ccc(=O)n(CCCN[C@H]3CC[C@H]4[C@H](C3)OC(=O)N4c3ccc4c(n3)NC(=O)CO4)c2c1 [Compound 99, 1-(3-{[(3aS,6S,7aS)-2-oxo-3-{3-oxo-2H,3H,4H-pyrido[3,2-b][1,4]oxazin-6-yl}-octahydro-1,3-benzoxazol-6-yl]amino}propyl)-7-methoxy-1,2-dihydro-1,5-naphthyridin-2-one]
MIC [10]: < 1 µg/mL
MIC [2]: < 1 µg/mL
Fold increase in MIC, E. coli MG1655 D87G [11]: 1 fold
MIC [12]: < 1 µg/mL
IC50 [3]: 10 to 100 µg/mL (≈ 19.2 to 192 µM)
MIC [4]: < 1 µg/mL
MIC [5]: 1 to 10 µg/mL (≈ 1.92 to 19.2 µM)
MIC [6]: < 1 µg/mL
MIC [7]: 1 to 10 µg/mL (≈ 1.92 to 19.2 µM)
Fold increase in MIC, E. coli MG1655 S83L [13]: 0.5 fold
MIC [14]: < 1 µg/mL
MIC [15]: < 1 µg/mL
MIC [8]: < 1 µg/mL
MIC [9]: 1 to 10 µg/mL (≈ 1.92 to 19.2 µM)
